Like-named read-outs stand apart in the source and are kept apart here. Where a SMILES comes first, the peptide text is derived from it.
Columns and labels:
growth hormone [1] = test: Growth hormone level by radioimmunoassay in nembutal-treated rats after subcutaneous injection; type: in vivo
Experimental: The growth hormone activities of the compounds of Example 5 was determined by injecting rats weighing about 200-250 g. first with nembutal intraperitoneally at a dose of 50 mg/kg then after 5 minutes injecting the rats subcutaneously with a solution of the compound of Example 5 in saline at a dose of 2 mg/kg per rat. Blood samples are taken 15 minutes after injection with the compound of Example 5 and the growth hormone level determined by radioimmunoassay. […] The foregoing experiment was repeated but the dose of the compound of Example 5 was raised to 2.38 mg/kg and the blood was sampled 2 hours after injection.

insulin = test: In vivo assay of simultaneous release of growth hormone, insulin and glucagon (pentobarbital, arginine): insulin; design: species or system rats
Experimental: (§1) Another test was conducted with the compound of Example 5 to determine its effect upon insulin and glucagon levels. The in vivo assay determining simultaneous release of growth hormone, insulin and glucagon was carried out by injecting three groups of male rats weighing about 200 to 250 g. (9 animals per group) with pentobarbital […], a subcutaneous injection of SRIF at a dose of 0.2 mg/kg to another group of rats and a subcutaneous injection of saline solution to the third group of rats. Ten minutes after such injection the rats receive 150 mg. arginine in 0.5 ml. saline directly in the heart. Five minutes later the rats are decapitated, the blood collected and various radioimmunoassays are run.

glucagon = test: In vivo assay of simultaneous release of growth hormone, insulin and glucagon (pentobarbital, arginine): glucagon; design: species or system rats
Experimental: as §1, with “pentobarbital intraperitoneally at a dose of 50 mg/kg per rat followed 15 minutes” for “pentobarbital”

growth hormone [2] = system: growth hormone
Experimental: Another test was conducted with the compound of Example 5 to determine its effect upon insulin and glucagon levels. The in vivo assay determining simultaneous release of growth hormone, insulin and glucagon was carried out by injecting three groups of male rats weighing about 200 to 250 g. (9 animals per group) with pentobarbital intraperitoneally at a dose of 50 mg/kg per rat followed 15 minutes later by a subcutaneous injection of the compound of Example 5 at a dose of 2.7 mg/kg to one group of rats, a subcutaneous injection of SRIF at a dose of 0.2 mg/kg to another group of rats and a subcutaneous injection of saline solution to the third group of rats. Ten minutes after such injection the rats receive 150 mg. arginine in 0.5 ml. saline directly in the heart. Five minutes later the rats are decapitated, the blood collected and various radioimmunoassays are run.

[3] = male rats, 2.7 mg/kg subcutaneously, arginine stimulated

With C[C@@H](O)[C@@H]1NC(=O)[C@H](Cc2ccccc2)NC(=O)[C@H]([C@@H](C)O)NC(=O)[C@H](CCCCN)NC(=O)[C@H](Cc2c[nH]c3ccccc23)NC(=O)[C@H](Cc2ccccc2)NC(=O)[C@H](Cc2ccccc2)NC(=O)[C@H](CC(N)=O)NC(=O)[C@H](CCCCN)NC(=O)CC[C@@H](C(=O)O)NC(=O)[C@H](CO)NC1=O [Example 5, L-lysyl-L-asparaginyl-L-phenylalanyl-L-phenylalanyl-L-tryptophyl-L-lysyl-L- threonyl-L-phenylalanyl-L-threonyl-L-seryl-L-glutamyl (cyclo α-lysyl to γ-glutamyl) peptide] (HELM PEPTIDE1{K.N.F.F.W.K.T.F.T.S.E}$PEPTIDE1,PEPTIDE1,1:R1-11:R3$$$V2.0) the growth hormone level (growth hormone [1]; rats, 2 mg/kg subcutaneously, blood 15 minutes after injection, control 132 ± 20) was 79 ± 14 ng/mL, the growth hormone level (growth hormone [1]; rats, 2.38 mg/kg subcutaneously, blood 2 hours after injection, control 244 ± 38) was 89 ± 23 ng/mL and the insulin levels (insulin; [3]) was “neither glucagon nor insulin levels were lowered”. The glucagon levels (glucagon; [3]) was “neither glucagon nor insulin levels were lowered”.

Work on “L-Lysyl-L-asparaginyl-L-phenylalanyl-L-phenylalanyl-D-tryptophyl-L-lysyl-L- threonyl-L-phenylalanyl-L-threonyl-L-seryl-glutamyl-(cyclo-α-lysyl to γ-glutamyl)peptide [Example 6]” yielded a growth hormone level (growth hormone [1]; rats, 1,500 μg/kg, after four hours, control 182 ± 49) of 34 ± 11 nanograms per milliliter, a growth hormone level (growth hormone [1]; rats, 1,500 μg/kg, two hours after administration, control 180 ± 27) of 18 ± 4 nanograms per milliliter and a GH (growth hormone [2]; experiment 1, dose 3,000 μg/kg, control 247±52) of 61 ± 7 ng/mL. For the same molecule, the GH (growth hormone [2]; experiment 2, dose 12 μg/kg, control 315±22) was 192 ± 29 ng/mL, the Insulin (insulin; experiment 1, dose 3,000 μg/kg, control 194±17) was 152±13 μU/ml and the Insulin (insulin; experiment 3, dose 3,000 μg/kg, control 183±19) was 93±9 μU/ml. The Glucagon (glucagon; experiment 3, dose 3,000 μg/kg, control 129±9) was 107±9 picog/ml.

— US4011182A, “Cyclic undecapeptide analogs of somatostatin and intermediates” (American Home Products Corporation, priority 1975, dated 1977)
